Reference: patent US10131652B2, “Pyrimidinyloxy benzene derivatives as herbicides” (E. I. DU PONT DE NEMOURS AND COMPANY, priority 2014, dated 2018)
Like-named read-outs stand apart in the source and are kept apart here.

Assays:
Assay type in all cases: in vivo
[1] = system: barnyardgrass (Echinochloa crus-galli); test: Test B pre-/postemergence plant response; conditions: for pest or weed control at 31 g/ha: 31 g ai/ha
Outline: (§1)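 Greenhouse pots, loam/sand soil; compound formulated with surfactant in non-phytotoxic solvent. Preemergence soil spray and postemergence spray at 1–2 leaf stage run simultaneously. Visual injury, 0–100, about 10 days post-treatment.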

corn (Zea mays) = test: Test B pre-/postemergence plant response; conditions: Zea mays, post-emergence, 240 h
Outline: as §1

[2] = system: giant foxtail (Setaria faberii); test: Test B pre-/postemergence plant response; conditions: for pest or weed control at 31 g/ha: 31 g ai/ha
Outline: as §1

[3] = system: pigweed (Amaranthus retroflexus); test: Test B pre-/postemergence plant response; conditions: for pest or weed control at 31 g/ha: 31 g ai/ha
Outline: as §1

[4] = system: wheat (Triticum aestivum); test: Test B pre-/postemergence plant response; conditions: Triticum aestivum, post-emergence, 240 h, read-out: Plant response rating, Wheat
Outline: as §1

[5] = system: barnyardgrass (Echinochloa crus-galli); test: Test C flooded paddy test plant response; conditions: Echinochloa crus-galli; Flood, 250 g ai/ha; scale of 0 to 100 where 0 is no effect and 100 is complete control; 13 to 15 days; read-out: Barnyardgrass plant response rating
Outline: (§2)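 Flooded-pot format, 3 cm water over soil maintained for the test duration; test compounds dispensed into the water at the 2-leaf stage. Greenhouse holding 13 to 15 days. Plants evaluated visually relative to untreated controls, 0 meaning no effect and 100 complete control.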

[6] = system: ducksalad (Heteranthera limosa); test: Test C flooded paddy test plant response; conditions: Heteranthera limosa; Flood, 250 g ai/ha; scale of 0 to 100 where 0 is no effect and 100 is complete control; 13 to 15 days; read-out: Ducksalad plant response rating
Outline: as §2

rice (Oryza sativa) = test: Test C flooded paddy test plant response; conditions: Oryza sativa; Flood, 250 g ai/ha; scale of 0 to 100 where 0 is no effect and 100 is complete control; 13 to 15 days; read-out: Rice plant response rating
Outline: as §2

[7] = system: small-flower umbrella sedge (Cyperus difformis); test: Test C flooded paddy test plant response; conditions: Cyperus difformis; Flood, 250 g ai/ha; scale of 0 to 100 where 0 is no effect and 100 is complete control; 13 to 15 days; read-out: Sedge, Umbrella plant response rating
Outline: as §2

[8] = system: blackgrass (Alopecurus myosuroides); test: Test D pre-/postemergence plant response; conditions: Alopecurus myosuroides; for pest or weed control at 16 g/ha: 16 g ai/ha; for pest or weed control at 31 g/ha: 31 g ai/ha; for pest or weed control at 62 g/ha: 62 g ai/ha; for pest or weed control at 125 g/ha: 125 g ai/ha
Outline: (§3)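 Pre-/post-emergence greenhouse test. Pre: seeded loam+sand, sprayed same day. Post: 1–4 leaf plants (2–18 cm), peat/vermiculite mix. Formulation: non-phytotoxic solvent + surfactant. Scored visually d13–15, 0–100 vs control.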

[9] = system: galium (catchweed bedstraw, Galium aparine); test: Test D pre-/postemergence plant response; conditions: Galium; for pest or weed control at 31 g/ha: 31 g ai/ha; for pest or weed control at 62 g/ha: 62 g ai/ha; for pest or weed control at 125 g/ha: 125 g ai/ha
Outline: as §3

[10] = Preemergence, 125 g ai/ha, 0 to 100 scale (0 no effect, 100 complete control)
[11] = 125 g ai/ha, postemergence, 0 to 100 scale, 0 no effect, 100 complete control
[12] = Postemergence, 31 g ai/ha, 0 to 100 scale (0 no effect, 100 complete control)
[13] = post-emergence, Postemergence, scale 0 to 100 (0 no effect, 100 complete control), read-out: Blackgrass plant response rating
[14] = post-emergence, Postemergence, scale 0 to 100, 0 no effect, 100 complete control, read-out: Plant response rating, Blackgrass
[15] = pre-emergence, Preemergence, scale 0 to 100 (0 no effect, 100 complete control), read-out: Plant response rating, Blackgrass
[16] = post-emergence, Postemergence, scale 0 to 100, 0 no effect, 100 complete control, read-out: Plant response rating, Galium
[17] = pre-emergence, Preemergence, scale 0 to 100 (0 no effect, 100 complete control), read-out: Plant response rating, Galium

Fc1cccc(Oc2ncc(Cl)cn2)c1-c1cc(C(F)F)no1 [Compound 144, 5-chloro-2-[2-[3-(difluoromethyl)-5-isoxazolyl]-3-fluorophenoxy]pyrimidine]
pest or weed control at 125 g/ha ([1]; Echinochloa crus-galli, post-emergence, 240 h, 125 g ai/ha, postemergence, 0 to 100 scale, 0 no effect, 100 complete control, read-out: Plant response rating, Barnyardgrass): 100% | pest or weed control at 31 g/ha ([1]; Echinochloa crus-galli, post-emergence, 240 h, Postemergence, 0 to 100 scale (0 no effect, 100 complete control), read-out: Plant response rating, Barnyardgrass): 30% | pest or weed control at 31 g/ha ([1]; Echinochloa crus-galli, pre-emergence, 240 h, Preemergence, 0 to 100 scale where 0 is no effect and 100 is complete control, read-out: Plant response rating, Barnyardgrass): 80% | Barnyardgrass plant response rating [1, 10]: 100 | Corn plant response rating (crop injury, 0 = no effect, 100 = complete kill) at 125 g/ha (corn (Zea mays); [11]): 90% | Corn plant response rating (crop injury, 0 = no effect, 100 = complete kill) at 31 g/ha (corn (Zea mays); [12]): 30% | Foxtail, Giant plant response rating [2, 10]: 100 | pest or weed control at 125 g/ha ([2]; Setaria faberi, post-emergence, 240 h, 125 g ai/ha, postemergence, 0 to 100 scale, 0 no effect, 100 complete control, read-out: Plant response rating, Foxtail, Giant): 100% | pest or weed control at 31 g/ha ([2]; Setaria faberi, post-emergence, 240 h, Postemergence, 0 to 100 scale (0 no effect, 100 complete control), read-out: Plant response rating, Foxtail, Giant): 80% | pest or weed control at 31 g/ha ([2]; Setaria faberi, pre-emergence, 240 h, Preemergence, 0 to 100 scale where 0 is no effect and 100 is complete control, read-out: Plant response rating, Foxtail, Giant): 100% | pest or weed control at 125 g/ha ([3]; Amaranthus retroflexus, post-emergence, 240 h, 125 g ai/ha, postemergence, 0 to 100 scale, 0 no effect, 100 complete control, read-out: Plant response rating, Pigweed): 100% | pest or weed control at 31 g/ha ([3]; Amaranthus retroflexus, post-emergence, 240 h, Postemergence, 0 to 100 scale (0 no effect, 100 complete control), read-out: Plant response rating, Pigweed): 100% | pest or weed control at 31 g/ha ([3]; Amaranthus retroflexus, pre-emergence, 240 h, Preemergence, 0 to 100 scale where 0 is no effect and 100 is complete control, read-out: Plant response rating, Pigweed): 100% | Pigweed plant response rating [3, 10]: 100 | plant injury at 125 g/ha [4, 11]: 90% | plant injury at 31 g/ha [4, 12]: 30% | pest or weed control at 250 g/ha [5]: 98% | pest or weed control at 250 g/ha [6]: 90% | plant injury at 250 g/ha (rice (Oryza sativa)): 40% | pest or weed control at 250 g/ha [7]: 85% | pest or weed control at 16 g/ha [8, 13]: 5% | pest or weed control at 31 g/ha [8, 13]: 15% | pest or weed control at 62 g/ha [8, 14]: 15% | pest or weed control at 125 g/ha [8, 14]: 75% | pest or weed control at 125 g/ha ([8]; pre-emergence, Preemergence, read-out: Plant response rating (scale 0 to 100), Blackgrass): 95% | pest or weed control at 16 g/ha [8, 15]: 55% | pest or weed control at 31 g/ha [8, 15]: 95% | pest or weed control at 62 g/ha [8, 15]: 95% | pest or weed control at 31 g/ha ([9]; post-emergence, Postemergence, scale 0 to 100 (0 no effect, 100 complete control), read-out: Galium plant response rating): 85% | pest or weed control at 62 g/ha [9, 16]: 90% | pest or weed control at 125 g/ha [9, 16]: 95% | pest or weed control at 125 g/ha ([9]; pre-emergence, Preemergence, read-out: Plant response rating (scale 0 to 100), Galium): 98% | pest or weed control at 16 g/ha ([9]; pre-emergence, Preemergence, 16 g ai/ha, scale 0 to 100 (0 no effect, 100 complete control), read-out: Plant response rating, Galium): 95% | pest or weed control at 31 g/ha [9, 17]: 98% | pest or weed control at 62 g/ha [9, 17]: 98%
